Measured values published in patent US9244073B2, “Assays for detecting enzymatic activity” (Wellstat Diagnostics, LLC, priority 2011, dated 2016).

Experiments:
Type in all cases: biochemical
[1] = system: bovine FX; experiment: Detecting plasma FIX activity by detecting FXa activity using an immunoassay (ECL); details: diluted reference plasma
Experimental: A FIX activity calibrator curve was set up in a 96-well U bottom microtiter plate, which was equilibrated to 37° C. in an incubator. All coagulating factor reagents were from Haematologic Technologies, Inc. ((HTI), Essex Junction, Vt.), unless specifically noted. To 50 μL of a factor reagent containing 1.6 nM bovine FXIa (Cat: HCX1A-0160), 0.0681 nM bovine α-thrombin (Cat: BCT-1020), 24.5 nM bovine FX (BCX-1050), […] FVIII (Cat: PRO-318, PROSPEC, Rehovot, Israel), 100 μM phosphorliposome (80% phosphatidylcholine and 20% phosphatidylserine) and 0.75 mM Gly-Pro-Arg-Pro amide (Cat: GPRP-NH2. Sigma, St. Louis; SEQ ID NO:32), 25 μL of a diluted reference plasma (HEMOSIL™ Calibration Plasma, Cat: 0020003700, Diapharma Group Inc., Columbus, Ohio) containing 24.4, 8.13, 2.71, 0.904, 0.301, 0.100 and 0.0335 mU/mL of FIX in the assay buffer (Example 4) were added, mixed and incubated for exactly 10 minutes in a hot plate set at 37° C. After the incubation, to the 75 μL of assay mixture, 50 μL of a master mix of FXa detection reagent (Example 4), containing 200 μg/mL of M280-SA beads, 600 ng/mL of a peptide (peptide sequence III), 1000 ng/mL of TAG Plus anti-FLAG® M1 antibody (Example 2), and 30 μg/mL I-2581 (synthetic thrombin inhibitor, cat: 82110810, DiaPharma Group Inc. West Chester, Ohio 45069) in assay buffer (Example 4) was added and incubated for a final 20 minutes at 37° C. After the incubation, the beads were washed once in 150 μL of a PBS-based buffer solution (Example 3) and were resuspended in 150 μL of the same buffer before beads were read in a M1MR analyzer (BioVeris).

[2] = system: FXa; experiment: Detecting FXa activity by detection of a neoepitope, competitive immunoassay format (ECL); details: for % Signal Decrease / Mean Signal: 15 minutes at 37° C.
Chain of FXa (P00742 41-179 limits assumed): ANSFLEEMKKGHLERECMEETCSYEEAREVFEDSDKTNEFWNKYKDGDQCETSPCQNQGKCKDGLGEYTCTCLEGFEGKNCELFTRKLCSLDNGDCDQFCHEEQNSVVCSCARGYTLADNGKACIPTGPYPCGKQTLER
Chain of FXa (P00742 235-488 limits assumed): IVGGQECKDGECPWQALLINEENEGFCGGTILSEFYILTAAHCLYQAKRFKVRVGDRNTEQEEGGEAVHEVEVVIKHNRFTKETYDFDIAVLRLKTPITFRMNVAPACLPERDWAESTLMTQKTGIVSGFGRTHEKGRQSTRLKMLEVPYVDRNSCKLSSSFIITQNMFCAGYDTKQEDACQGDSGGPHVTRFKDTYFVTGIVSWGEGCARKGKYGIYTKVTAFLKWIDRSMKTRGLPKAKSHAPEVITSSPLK
Excerpt: Another method for detecting FXa activity uses a competitive immunoassay format. For example, peptide sequence VI, below, comprises a FXa recognition site (-IEGR-) (SEQ ID NO:1) at its N-terminus and the peptide sequence IV-amide (DYKDDDDKGS-amide) (SEQ ID NO:4) at its C-terminus. The FXa cleavage of the peptide bond after the arginine residue of -IEGR- (SEQ ID NO:1) sequence produces a neoepitope (SEQ ID NO:4), which can be measured with a TAG Plus-conjugated peptide (sequence VII) and a capture antibody in a competitive immunoassay format.
A FXa activity calibrator curve was set up in a 96-well U bottom microtiter plate containing 100 μL of a 3-fold serial dilution of FXa at 500, 167, 55.6, 18.5, 6.17, 2.06 and 0.686 ng/mL in the assay buffer (Example 4) and 50 μL of a master mix of FXa detection reagent containing 200 μg/mL of M280-SA beads prebound with biotinylated capture antibody (5.0 μg antibody per 1.0 mg of beads) (anti-FLAG® MD, 200 μg/mL of the NH2-IEGRDYKDDDDKGS-amide (Peptide sequence VI; SEQ ID NO:5) and 100 ng/mL of NH2-DYKDDDDKGS-TAG Plus (Peptide sequence VII; SEQ ID NO:4) in the same assay buffer. The plate was incubated on a hot plate (Example 4) at 37° C. for 15 minutes. After the incubation, the beads were washed once in 150 μL of the PBS-based buffer solution (Example 3) and were resuspended in 150 μL of the PBS-based buffer and read in a M1MR analyzer (BioVeris). FXa activities were detectable at 1.0 ng/mL or lower concentrations which produced about a 10% decrease of the background signals (the sample without FXa).

[3] = system: bovine factor Xa; experiment: Detecting heparin activity with an ECL-based FXa activity immunoassay (with human antithrombin)
Chain of bovine factor Xa (P01008 33-464): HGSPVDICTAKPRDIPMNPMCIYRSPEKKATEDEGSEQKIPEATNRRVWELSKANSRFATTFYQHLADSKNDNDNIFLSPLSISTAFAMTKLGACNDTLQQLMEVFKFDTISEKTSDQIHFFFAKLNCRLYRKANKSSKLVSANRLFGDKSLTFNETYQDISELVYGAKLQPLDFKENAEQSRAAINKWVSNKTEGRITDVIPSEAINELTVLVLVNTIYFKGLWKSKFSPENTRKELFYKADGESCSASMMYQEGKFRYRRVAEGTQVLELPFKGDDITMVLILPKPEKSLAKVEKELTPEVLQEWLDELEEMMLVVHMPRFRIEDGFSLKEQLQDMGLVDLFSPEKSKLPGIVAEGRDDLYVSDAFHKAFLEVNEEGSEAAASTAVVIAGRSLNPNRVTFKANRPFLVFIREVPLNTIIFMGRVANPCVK
Experimental: A heparin activity calibrator curve was set up in a 96-well U bottom microtiter plate, which was equilibrated to 37° C. in an incubator. To each well, 25 μL of 100, 50, 25, 12.5, 6.25 and 3.13 mIU/mL heparin prepared from a heparin sodium Salt (Cat: H4784-2500MG, Sigma, St. Louis) and 25 μL of 1.0 IU/mL human antithrombin (from kit of BIOPHEN Heparin Anti-Xa, Ref: 221010, Aniara Diagnostica LLC, Columbus, Ohio) were added and incubated for 2 minutes at 37° C. Then to the mixture, 25 μL of 8.0 μg/mL bovine factor Xa (from kit of BIOPHEN Heparin Anti-Xa, Ref: 221010, Aniara Diagnostica LLC, Columbus, Ohio) was added, followed immediately with 25 μL of a master mix of FXa detection reagent containing 400 μg/mL of M280-SA beads, 1.2 μg/mL of a peptide (peptide sequence V), 2.0 μg/mL of TAG Plus anti-FLAG® M1 antibody (Example 2) and 25 mM CaCl2. The subsequent mixture was incubated for a final 20 minutes at 37° C. After the incubation, the beads were washed once in 150 μL of the PBS-based buffer solution (Example 3) and were resuspended in 150 μL of the same buffer before beads were read in a M1MR Analyzer (BioVeris).

## FIX: FIX in diluted reference plasma (HEMOSIL Calibration Plasma)
[1]; FIX 0.0335 mU/mL
  Mean Signal: 3665
  Signal/Background: 1.1
[1]; FIX 0.100 mU/mL
  Mean Signal: 4050
  Signal/Background: 1.2
[1]; FIX 0.301 mU/mL
  Mean Signal: 5626
  Signal/Background: 1.6
[1]; FIX 0.904 mU/mL
  Mean Signal: 8707
  Signal/Background: 2.5
[1]; FIX 2.71 mU/mL
  Mean Signal: 16884
  Signal/Background: 4.9
[1]; FIX 8.13 mU/mL
  Mean Signal: 30879
  Signal/Background: 9.0
[1]; FIX 24.4 mU/mL
  Mean Signal: 40234
  Signal/Background: 11.7

## NH2-IEGRDYKDDDDKGS-amide (H-IEGRDYKDDDDKGS-NH2) [Peptide sequence VI]
[2]; FXa 1.0 ng/mL or lower, background = sample without FXa
  decrease of the background signals at the detectable FXa concentration: ~10%
[2]; Xa 0.686 ng/mL
  % Signal Decrease: −8.5%
  Mean Signal: 84026
[2]; Xa 2.06 ng/mL
  % Signal Decrease: −22%
  Mean Signal: 71945
[2]; Xa 6.17 ng/mL
  % Signal Decrease: −42%
  Mean Signal: 52963
[2]; Xa 18.5 ng/mL
  % Signal Decrease: −60%
  Mean Signal: 36383
[2]; Xa 55.6 ng/mL
  % Signal Decrease: −75%
  Mean Signal: 22509
[2]; Xa 167 ng/mL
  % Signal Decrease: −84%
  Mean Signal: 14300
[2]; Xa 500 ng/mL
  % Signal Decrease: −89%
  Mean Signal: 9830

## heparin sodium Salt
[3]; Heparin 3.13 mIU/mL
  % Signal Decrease: −19%
  Mean Signal: 81999
[3]; Heparin 6.25 mIU/mL
  % Signal Decrease: −38%
  Mean Signal: 62502
[3]; Heparin 12.5 mIU/mL
  % Signal Decrease: −60%
  Mean Signal: 40868
[3]; Heparin 25.0 mIU/mL
  % Signal Decrease: −81%
  Mean Signal: 19648
[3]; Heparin 50.0 mIU/mL
  % Signal Decrease: −93%
  Mean Signal: 7203
[3]; Heparin 100 mIU/mL
  % Signal Decrease: −97%
  Mean Signal: 3322
